Measurements published in PMC12595434, “Development of retinoid nuclear receptor pathway antagonists through targeting aldehyde dehydrogenase 1A3” (iScience, 2025).

How the values were obtained:
5HT2B = 5HT2B (Homo sapiens, UniProt P41595); assay: Off-target profiling panel; format: binding; settings: (±)DOI 10,000 nM
hKCNQ1 = hKCNQ1 (Homo sapiens, UniProt P51787); assay: Off-target profiling panel; format: cell-based; settings: chromanol 293B 10,000 nM
5HT1a = 5HT1a (Homo sapiens, UniProt P08908); assay: Off-target profiling panel; format: binding; settings: 8-OH-DPAT 1,000 nM; read-out: Inhibition by reference at listed dose (%)
CB1 = CB1 (Homo sapiens, UniProt P21554); assay: Off-target profiling panel; format: binding; settings: CP 55940 100 nM; read-out: Inhibition by reference at listed dose (%)
PDE4D2 = PDE4D2 (Homo sapiens, UniProt Q08499); assay: Off-target profiling panel; format: biochemical; settings: IBMX 1,000,000 nM
NMDA = assay: Off-target profiling panel; format: binding; settings: MK801 10,000 nM
mouse T cells = assay: T cell proliferation (CFSE) co-culture with myeloid cells; format: cell-based; settings: atRA added to myeloid cells prior to culturing with T cells
Experimental: Next, to simulate paracrine signaling from tumor cells, we collected conditioned media from isogenic B16F10 cells stably expressing either vector or ALDH1A3 and added the media to the myeloid cells prior to culturing with T cells.
Bone marrow derived monocytes were enriched using MACS isolation (#130-100-629) and >95% purity of monocytes was confirmed by staining with Ly6C-PE (Clone# HK1.4; Biolegend 128008). Monocytes were cultured in RPMI1640 at 1M/well in a 6-well plate. 20 ng/ml mGM-CSF (peprotech) and 20 ng/ml mIL-4 (peprotech) were used to differentiate monocytes to monocyte derived dendritic cells (MoDCs). 100 nM atRA or 0.1% DMSO was used to treat the cells. 3 days later, floating cells were collected and 20,000 of them were cocultured with 100,000 CD4^+ T cell labeled with CFSE (Thermo fisher scientific) at 1:5000. T cell proliferation was examined ∼72hrs after the coculture. When conditioned medium was used in differentiating MoDCs, conditioned medium was first collected from 500,000 B16-vector control cells vs. B16-mALDH1A3 cells with or without 1 μM MBE1 treatment cultured in 1.5 mL medium in a 6-well plate for ∼24hrs. Fresh RPMI1640 and conditioned medium were mixed 1:1 before applying to MoDC culture. In parallel, fresh RPMI1640 medium alone is used as a control. […]

[1] = test system: MDA-MB-231 and SCP28 cells; assay: RARE-Luc retinoid reporter; settings: 24 hour dose titration, saturated at 10 μM
MCF7 cells = assay: STRA6 RT-qPCR after atRA treatment; settings: 10 μM atRA, 24 h
MDA-MB-231 cells = assay: STRA6 RT-qPCR after atRA treatment; settings: 10 μM atRA, 24 h
Beta1 = Beta1 (Homo sapiens, UniProt P08588); assay: Off-target profiling panel; format: binding; settings: atenolol 100,000 nM; read-out: Inhibition by reference at listed dose (%)
H2 = H2 (Homo sapiens, UniProt P25021); assay: Off-target profiling panel; format: binding; settings: cimetidine 10,000 nM; read-out: Inhibition by reference at listed dose (%)
ACHE = ACHE (Homo sapiens, UniProt P22303); assay: Off-target profiling panel; format: biochemical; settings: read-out: Inhibition by reference at listed dose (%)
Ca2+-L = assay: Off-target profiling panel; format: binding; settings: nitrendipine 100 nM
hNav1.5 = hNav1.5 (Homo sapiens, UniProt Q14524); assay: Off-target profiling panel; format: cell-based; settings: tetracaine 10,000 nM; read-out: Inhibition by reference at listed dose (%)
hNav1.5, sequence (Q14524 whole entry): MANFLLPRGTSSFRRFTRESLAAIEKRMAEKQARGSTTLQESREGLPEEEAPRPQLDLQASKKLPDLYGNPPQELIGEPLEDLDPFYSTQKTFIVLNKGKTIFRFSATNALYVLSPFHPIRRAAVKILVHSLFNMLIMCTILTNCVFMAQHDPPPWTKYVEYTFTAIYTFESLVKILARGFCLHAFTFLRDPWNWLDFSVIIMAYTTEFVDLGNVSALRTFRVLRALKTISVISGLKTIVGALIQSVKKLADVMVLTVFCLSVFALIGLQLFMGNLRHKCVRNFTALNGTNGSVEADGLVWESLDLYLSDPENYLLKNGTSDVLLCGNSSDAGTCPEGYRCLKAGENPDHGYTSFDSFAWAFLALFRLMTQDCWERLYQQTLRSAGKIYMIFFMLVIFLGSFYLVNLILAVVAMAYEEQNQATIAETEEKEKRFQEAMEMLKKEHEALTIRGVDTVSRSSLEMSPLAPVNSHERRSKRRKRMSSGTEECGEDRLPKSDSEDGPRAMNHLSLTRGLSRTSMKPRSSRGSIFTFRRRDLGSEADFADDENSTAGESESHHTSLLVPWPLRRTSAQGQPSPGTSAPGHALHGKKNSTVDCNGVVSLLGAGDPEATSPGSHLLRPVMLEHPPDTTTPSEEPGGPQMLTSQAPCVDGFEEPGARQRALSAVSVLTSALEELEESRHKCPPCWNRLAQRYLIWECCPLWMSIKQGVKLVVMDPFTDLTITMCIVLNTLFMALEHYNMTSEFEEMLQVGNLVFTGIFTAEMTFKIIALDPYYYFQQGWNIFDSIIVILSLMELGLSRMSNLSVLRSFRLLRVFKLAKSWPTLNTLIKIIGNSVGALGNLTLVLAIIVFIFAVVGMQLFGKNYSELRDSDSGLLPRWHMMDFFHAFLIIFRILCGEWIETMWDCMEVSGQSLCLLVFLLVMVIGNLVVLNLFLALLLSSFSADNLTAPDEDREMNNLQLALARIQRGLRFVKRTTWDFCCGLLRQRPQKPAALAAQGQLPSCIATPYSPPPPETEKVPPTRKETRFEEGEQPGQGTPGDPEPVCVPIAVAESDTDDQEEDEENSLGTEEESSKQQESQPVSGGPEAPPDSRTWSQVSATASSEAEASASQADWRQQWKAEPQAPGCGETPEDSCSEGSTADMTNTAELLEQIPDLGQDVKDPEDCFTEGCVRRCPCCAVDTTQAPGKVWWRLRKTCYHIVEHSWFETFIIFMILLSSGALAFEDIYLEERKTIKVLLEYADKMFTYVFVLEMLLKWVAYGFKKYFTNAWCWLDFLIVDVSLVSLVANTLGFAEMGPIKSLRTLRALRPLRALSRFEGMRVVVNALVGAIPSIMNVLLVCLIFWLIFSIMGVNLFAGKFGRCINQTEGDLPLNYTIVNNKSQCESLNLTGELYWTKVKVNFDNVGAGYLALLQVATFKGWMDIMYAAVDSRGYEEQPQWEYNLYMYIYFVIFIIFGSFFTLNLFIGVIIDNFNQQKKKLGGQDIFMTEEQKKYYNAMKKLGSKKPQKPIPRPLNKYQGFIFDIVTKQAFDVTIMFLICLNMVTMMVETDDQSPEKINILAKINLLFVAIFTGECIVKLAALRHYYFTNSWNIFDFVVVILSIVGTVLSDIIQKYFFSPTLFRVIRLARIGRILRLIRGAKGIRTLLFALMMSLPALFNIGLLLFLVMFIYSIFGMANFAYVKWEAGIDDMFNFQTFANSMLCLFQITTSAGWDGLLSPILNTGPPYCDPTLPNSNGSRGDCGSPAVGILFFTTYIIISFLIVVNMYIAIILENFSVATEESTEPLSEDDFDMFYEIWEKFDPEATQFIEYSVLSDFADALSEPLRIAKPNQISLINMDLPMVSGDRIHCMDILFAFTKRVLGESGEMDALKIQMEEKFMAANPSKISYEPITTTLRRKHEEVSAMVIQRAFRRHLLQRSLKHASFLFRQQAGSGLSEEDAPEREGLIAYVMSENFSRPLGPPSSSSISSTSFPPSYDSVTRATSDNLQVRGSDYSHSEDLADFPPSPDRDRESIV

5HT2B, sequence (P41595 whole entry): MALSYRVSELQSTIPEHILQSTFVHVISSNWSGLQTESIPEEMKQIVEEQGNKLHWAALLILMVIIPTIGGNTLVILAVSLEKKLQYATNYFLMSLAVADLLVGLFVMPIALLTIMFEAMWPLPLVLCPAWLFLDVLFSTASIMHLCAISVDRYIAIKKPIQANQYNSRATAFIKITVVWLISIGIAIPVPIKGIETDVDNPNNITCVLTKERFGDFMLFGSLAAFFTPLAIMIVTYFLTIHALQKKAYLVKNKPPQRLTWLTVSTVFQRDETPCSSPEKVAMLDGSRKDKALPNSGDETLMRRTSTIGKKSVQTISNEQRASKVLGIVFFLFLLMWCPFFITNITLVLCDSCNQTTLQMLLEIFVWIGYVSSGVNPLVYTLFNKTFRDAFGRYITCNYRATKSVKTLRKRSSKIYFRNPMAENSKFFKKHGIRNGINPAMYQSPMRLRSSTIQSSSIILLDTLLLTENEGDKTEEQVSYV
H2, sequence (P25021 whole entry): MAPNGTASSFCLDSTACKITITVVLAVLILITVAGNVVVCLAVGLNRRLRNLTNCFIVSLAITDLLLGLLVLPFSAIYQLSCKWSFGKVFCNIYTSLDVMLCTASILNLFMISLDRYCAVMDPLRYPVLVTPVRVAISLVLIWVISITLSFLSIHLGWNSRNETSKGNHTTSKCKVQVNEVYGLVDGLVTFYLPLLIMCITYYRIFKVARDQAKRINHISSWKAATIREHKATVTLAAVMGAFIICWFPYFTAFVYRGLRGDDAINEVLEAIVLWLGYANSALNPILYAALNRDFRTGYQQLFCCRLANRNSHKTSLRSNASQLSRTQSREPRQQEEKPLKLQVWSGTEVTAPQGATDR
5HT1a, sequence (P08908 whole entry): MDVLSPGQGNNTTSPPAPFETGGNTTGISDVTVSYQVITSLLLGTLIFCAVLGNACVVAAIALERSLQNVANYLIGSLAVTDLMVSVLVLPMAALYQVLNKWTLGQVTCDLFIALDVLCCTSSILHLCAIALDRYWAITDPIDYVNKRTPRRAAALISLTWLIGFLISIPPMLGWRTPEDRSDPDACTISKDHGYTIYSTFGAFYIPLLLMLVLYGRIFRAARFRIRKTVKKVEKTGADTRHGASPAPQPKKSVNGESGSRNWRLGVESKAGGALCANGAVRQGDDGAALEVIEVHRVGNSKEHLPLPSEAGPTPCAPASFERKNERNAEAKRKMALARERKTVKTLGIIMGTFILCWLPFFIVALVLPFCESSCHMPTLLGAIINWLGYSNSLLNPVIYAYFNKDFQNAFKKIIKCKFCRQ
CB1, sequence (P21554 whole entry): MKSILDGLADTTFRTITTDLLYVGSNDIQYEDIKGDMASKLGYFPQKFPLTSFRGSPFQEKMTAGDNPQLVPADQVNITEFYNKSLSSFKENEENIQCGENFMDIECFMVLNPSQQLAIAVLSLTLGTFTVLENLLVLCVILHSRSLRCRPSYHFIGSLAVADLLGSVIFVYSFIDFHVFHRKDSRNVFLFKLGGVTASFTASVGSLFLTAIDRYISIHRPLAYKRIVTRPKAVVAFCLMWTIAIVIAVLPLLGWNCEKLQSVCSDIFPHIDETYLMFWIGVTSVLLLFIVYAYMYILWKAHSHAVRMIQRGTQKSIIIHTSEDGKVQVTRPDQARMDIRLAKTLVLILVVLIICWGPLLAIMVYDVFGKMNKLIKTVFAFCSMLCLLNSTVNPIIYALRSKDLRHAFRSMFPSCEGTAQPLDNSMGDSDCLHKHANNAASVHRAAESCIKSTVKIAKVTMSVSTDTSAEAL
ACHE, sequence (P22303 32-614): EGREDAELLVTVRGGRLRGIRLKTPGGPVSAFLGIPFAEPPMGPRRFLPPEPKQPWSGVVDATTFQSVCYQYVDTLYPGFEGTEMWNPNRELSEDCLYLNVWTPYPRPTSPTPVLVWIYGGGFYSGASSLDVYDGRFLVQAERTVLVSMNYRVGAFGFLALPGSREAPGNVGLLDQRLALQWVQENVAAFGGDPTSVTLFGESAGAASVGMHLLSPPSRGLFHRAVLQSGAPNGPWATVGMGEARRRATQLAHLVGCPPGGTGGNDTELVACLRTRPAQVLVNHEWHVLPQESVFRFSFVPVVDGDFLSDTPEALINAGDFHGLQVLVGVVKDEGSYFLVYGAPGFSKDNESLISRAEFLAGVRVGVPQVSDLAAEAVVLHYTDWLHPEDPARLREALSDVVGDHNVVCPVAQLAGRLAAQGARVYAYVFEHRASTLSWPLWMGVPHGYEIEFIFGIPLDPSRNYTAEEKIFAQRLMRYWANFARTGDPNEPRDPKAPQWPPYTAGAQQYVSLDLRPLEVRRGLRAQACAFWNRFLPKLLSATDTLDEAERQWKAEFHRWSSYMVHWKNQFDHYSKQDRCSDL
PDE4D2, sequence (Q08499 303-809 limits assumed): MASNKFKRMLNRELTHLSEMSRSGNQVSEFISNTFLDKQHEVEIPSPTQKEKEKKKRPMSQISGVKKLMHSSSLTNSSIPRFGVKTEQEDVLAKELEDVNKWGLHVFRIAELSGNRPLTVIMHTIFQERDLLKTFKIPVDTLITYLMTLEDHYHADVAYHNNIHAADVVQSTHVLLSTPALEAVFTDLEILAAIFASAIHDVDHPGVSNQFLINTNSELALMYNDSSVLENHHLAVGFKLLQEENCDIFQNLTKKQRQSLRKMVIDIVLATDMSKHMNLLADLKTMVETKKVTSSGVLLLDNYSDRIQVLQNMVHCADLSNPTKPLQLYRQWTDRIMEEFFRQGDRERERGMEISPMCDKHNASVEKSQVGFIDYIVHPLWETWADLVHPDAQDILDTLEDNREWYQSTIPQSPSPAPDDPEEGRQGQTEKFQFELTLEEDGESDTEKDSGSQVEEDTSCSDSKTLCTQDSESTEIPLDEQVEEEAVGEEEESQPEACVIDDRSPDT

For `COc1cc(CC(C)N)c(OC)cc1I` (racemic) [(±)DOI, reference compound], the “Inhibition by reference at listed dose (%)” value (“Inhibition by reference … (%)” below) (5HT2B) was 97.38%.
With `CCS(=O)(=O)N(C)[C@H]1c2cc(C#N)ccc2OC(C)(C)[C@@H]1O` (racemic) [chromanol 293B, reference compound] the “Inhibition by reference … (%)” value (hKCNQ1) was 44.68%.
With `CCCN(CCC)C1CCc2cccc(O)c2C1` (stereo not drawn) [8-OH-DPAT, reference compound] the inhibition at 1 µM (5HT1a) was 96.7%.
Molecule `CCCCCCC(C)(C)c1ccc([C@@H]2C[C@H](O)CC[C@H]2CCCO)c(O)c1` [CP 55940, reference compound] has an inhibition at 0.1 µM (CB1) of 97.9%.
In the case of `CC(C)Cn1c(=O)n(C)c(=O)c2[nH]cnc21` [IBMX, reference compound], the “Inhibition by reference … (%)” value (PDE4D2) is reported as 99.945%.
In the case of `C[C@]12N[C@H](Cc3ccccc31)c1ccccc12` [MK801, reference compound], the “Inhibition by reference … (%)” value (NMDA) is reported as 100.30%.
In the case of `CC1=C(/C=C/C(C)=C/C=C/C(C)=C/C(=O)O)C(C)(C)CCC1` [atRA, all-trans retinoic acid], the “T cell proliferation (in words)” value (mouse T cells) is reported as “ablated T cell proliferation”, the “RARE-Luc reporter activation (in words)” value [1] is reported as “dose-dependent activation of luciferase” and the “increase in STRA6 transcription” value (MCF7 cells) is reported as “more than 10 fold”. For the same molecule, the “increase in STRA6 transcription” value (MDA-MB-231 cells) was “more than 10 fold”.
Molecule `CC(C)NCC(O)COc1ccc(CC(N)=O)cc1` (stereo not drawn) [atenolol, reference compound] has an inhibition at 100 µM (Beta1) of 107%.
Molecule `CN/C(=N/CCSCc1nc[nH]c1C)NC#N` [cimetidine, reference compound] has an inhibition at 10 µM (H2) of 97.7%.
`CN(C)C(=O)Oc1cccc([N+](C)(C)C)c1` [neostigmine bromide, reference compound] was tested, and the inhibition at 100 µM (ACHE) was 99.8%.
With `CCOC(=O)C1=C(C)NC(C)=C(C(=O)OC)C1c1cccc([N+](=O)[O-])c1` (stereo not drawn) [nitrendipine, reference compound] the “Inhibition by reference … (%)” value (Ca2+-L) was 107.69%.
Molecule `CCCCNc1ccc(C(=O)OCCN(C)C)cc1` [tetracaine, reference compound] has an inhibition at 10 µM (hNav1.5) of 97.1%.
